According to patent US20160038532A1, “Treatment of Multiple Sclerosis With Combination of Laquinimod and Glatiramer Acetate” (TEVA PHARMACEUTICAL INDUSTRIES, LTD., priority 2011, published 2016):
Marks after values point to notes of the source that are not given here.

Legend:
[1] = tested on: Multiple Sclerosis; conditions: two phase III trials; cited from earlier work
[2] = in vivo; cited from earlier work
[3] = Weight of EAE mice (Example 2.1); type: in vivo, C57B1/6 mice
Description: FIG. 1 is a graphical representation of the experimental results from Example 2.1.
The differences were statistically significant (by MANOVA). […] However, when the first signs appeared the mice started to lose weight. On days 16 and 24 the weight of control mice was statistically different from almost all the others (Table 4, FIG. 1B).

[4] = tested on: MOG-induced EAE; assay: MOG-induced EAE, repeat study (Example 2.3); type: in vivo, C57B1/6 mice
Experimental: 120 female C57B1/6 mice 8-10 weeks old were used the study. Mice were allocated randomly into 8 groups according to Table 7 below.
24 mg MOG was diluted in 8 ml PBS (3 mg/ml, stock solution). Groups 1, 3, 5 and 7: 4 ml of stock solution was diluted 1:1 with PBS. […] This solution was mixed 1:1 with the stock solution of MOG.
The high dose LAQ (25 mg/10 ml/kg) solution (150 mg in 60 ml DDW) was prepared once weekly and stored in the amber glass at room temperature. The lower LAQ doses were prepared daily. For the dose of 5 mg/kg, 1.6 ml of stock solution were added to 6.4 ml DDW. For the dose 1 mg/kg, […] of the previous solution (intermediate dose) were added to 5.2 ml DDW. The compound was administered by gavage once daily during the hole experiment (30 days) at a volume of 0.2 ml/mouse.
The mice were observed daily from the 10th day post-EAE induction (first injection of MOG) and the EAE clinical signs were scored according to the grades described in the 2 above.

[5] = tested on: multiple sclerosis (MS); conditions: daily subcutaneous injections, 20 mg/injection; cited from earlier work
[6] = laquinimod 5 mg/kg/day, alone or + GA-blocking
[7] = laquinimod 25 mg/kg/day, alone or + GA-blocking
[8] = laquinimod 1 mg/kg/day gavage, alone or + GA-blocking 12.5 mg/kg day 0
[9] = laquinimod 5 mg/kg/day gavage, alone or + GA-blocking 12.5 mg/kg day 0
[10] = laquinimod 25 mg/kg/day gavage, alone or + GA-blocking 12.5 mg/kg day 0
[11] = GA-blocking 12.5 mg/kg with inoculum day 0

CCN(C(=O)c1c(O)c2c(Cl)cccc2n(C)c1=O)c1ccccc1 [laquinimod]
safety and tolerability profile [1]: favorable safety and tolerability profile
oral bioavailability [2]: high oral bioavailability
weight, day 5 after induction [3, 6]: 17.5
weight, day 10 after induction [3, 6]: 18.5
weight, day 16 after induction [3, 6]: 18.6
weight, day 24 after induction [3, 6]: 16.5
weight, day 30 after induction [3, 6]: 16.0
weight, day 5 after induction [3, 7]: 17.8
weight, day 10 after induction [3, 7]: 18.9
weight, day 16 after induction [3, 7]: 19.1*
weight, day 24 after induction [3, 7]: 17.5
weight, day 30 after induction [3, 7]: 17.6
inhibition at 1 mg/kg ([4]; Mus musculus, po, 0 h, laquinimod 1 mg/kg/day gavage, alone or + GA-blocking 12.5 mg/kg day 0, read-out: % inhibition compared to Control (GMS)): -1.2%
inhibition at 5 mg/kg ([4]; Mus musculus, po, 0 h, laquinimod 5 mg/kg/day gavage, alone or + GA-blocking 12.5 mg/kg day 0, read-out: % inhibition compared to Control (GMS)): 70%
inhibition at 25 mg/kg ([4]; Mus musculus, po, 0 h, laquinimod 25 mg/kg/day gavage, alone or + GA-blocking 12.5 mg/kg day 0, read-out: % inhibition compared to Control (GMS)): 95%
Group Mean Score [4, 8]: 2.50
Incidence [4, 8]: 15/15
Mean Disease Duration [4, 8]: 14.1 days
Mean Maximal Score [4, 8]: 4.27
Mean Onset [4, 8]: 13.7 days
Mortality [4, 8]: 4/15
Group Mean Score [4, 9]: 0.74**
Incidence [4, 9]: 11/15
Mean Disease Duration [4, 9]: 6.3*** days
Mean Maximal Score [4, 9]: 2.23*
Mean Onset [4, 9]: 21.0*** days
Mortality [4, 9]: 0/15
% inhibition compared to Control (GMS) [4, 10]: 95.1%
Group Mean Score [4, 10]: 0.12***
Incidence [4, 10]: 6/15
Mean Disease Duration [4, 10]: 1.5*** days
Mean Maximal Score [4, 10]: 0.77***
Mean Onset [4, 10]: 24.7*** days
Mortality [4, 10]: 0/15

L-glutamic acid polymer with L-alanine, L-lysine and L-tyrosine, acetate (salt) [GA]
effect on relapse rates, progression of disability, new MRI lesions [5]: reduce relapse rates
weight, day 5 after induction ([3]; GA-blocking alone): 17.9
weight, day 10 after induction ([3]; GA-blocking alone): 19.3
weight, day 16 after induction ([3]; GA-blocking alone): 19.9**
weight, day 24 after induction ([3]; GA-blocking alone): 18.0*
weight, day 30 after induction ([3]; GA-blocking alone): 18.2
% inhibition compared to Control (GMS) [4, 11]: 78.9%
Group Mean Score [4, 11]: 0.52***
Incidence [4, 11]: 5/15
Mean Disease Duration [4, 11]: 3.7*** days
Mean Maximal Score [4, 11]: 0.97***
Mean Onset [4, 11]: 25.6*** days
